According to ChEMBL document CHEMBL1126220, “Synthesis and antifolate properties of 5,10-ethano-5,10-dideazaaminopterin” (J Med Chem, 1992):

Experiments:
[1] = Influx with respect to the MTX.; assay type: functional
L1210 = test: Concentration required to inhibit 50% growth of L1210 cells in culture.; assay type: functional, cell-based; conditions: Mus musculus
Dihydrofolate reductase = target: T1, Dihydrofolate reductase (Mus musculus, UniProt P00375); test: Inhibition of the dihydrofolate reductase enzyme(DHFR) derived from L1210 murine leukemia cells.; assay type: cell-based
T1 sequence (P00375 whole entry): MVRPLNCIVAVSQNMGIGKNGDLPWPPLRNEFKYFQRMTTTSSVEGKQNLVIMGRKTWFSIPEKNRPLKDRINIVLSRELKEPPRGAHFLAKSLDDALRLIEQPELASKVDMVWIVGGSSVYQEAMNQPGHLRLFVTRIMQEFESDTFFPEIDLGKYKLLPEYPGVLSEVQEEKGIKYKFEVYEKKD

| SMILES | Relative influx [1] | IC50 (L1210) [nM] | Ki (Dihydrofolate reductase) [nM] |
| --- | --- | --- | --- |
| CC(Cc1cnc2nc(N)nc(N)c2c1)c1ccc(C(=O)NC(CCC(=O)O)C(=O)O)cc1 (stereo not given) | 1.43 | – | – |
| Nc1nc(N)c2c3c(cnc2n1)CC(c1ccc(C(=O)NC(CCC(=O)O)C(=O)O)cc1)CC3 (stereo not given) | 3.3 | 4.5 | 0.017 |
| CCC(Cc1cnc2nc(N)nc(N)c2c1)c1ccc(C(=O)NC(CCC(=O)O)C(=O)O)cc1 (stereo not given) | 1.32 | – | – |
